Source: PMC7321319, “Comparative Molecular Transporter Properties of Cyclic Peptides Containing Tryptophan and Arginine Residues Formed through Disulfide Cyclization” (Molecules, 2020)

System: LLC-PK1, CCRF-CEM, CRL-1739, MDA-MB-231 and SKOV-3 cell lines
Assay: MTS cell viability assay, statements over the whole cell line panel
Assay type: cell-based
Settings: Dox 5 µM, 24 and 72 h, 37 °C, n = 3
Method: To evaluate the cytotoxicity of synthesized linear (C(WR)xC) and cyclic [C(WR)xC] […] Doxorubicin (Dox, 5 µM) was used as a positive control.
The in vitro cytotoxicity of the peptides was evaluated using the human leukemia carcinoma cell line (CCRF-CEM), normal kidney cell line (LLC-PK1), gastric adenocarcinoma (CRL-1739), ovarian (SKOV-3), and breast carcinoma (MDA-MB-231) cell lines to determine the toxicity of the peptides according to the previously reported procedure [17]. CCRF-CEM cells were seeded at 50,000 cells in 0.1 mL per well in 96-well plates. Other cells were seeded at 5,000 cells in 0.1 mL per well in 96-well plates. All cell lines were seeded in RPMI-1640 medium (pH 7.4) containing FBS (10%), 24 h prior to the experiment. […] This generates formazan crystals which are soluble in cell culture medium and can be measured at 490 nm. Cell viability was then determined by measuring the fluorescence intensity at 490 nm using a SpectraMaxM2 microplate spectrophotometer (Molecular Devices, San Jose, CA, USA). The percentage of cell survival was calculated as [(OD value of cells treated with the test mixture of compounds)−(OD value of culture medium)]/[(OD value of control cells) − (OD value of culture medium)] × 100%.

## COc1cccc2c1C(=O)c1c(O)c3c(c(O)c1C2=O)C[C@@](O)(C(=O)CO)C[C@@H]3O[C@H]1C[C@H](N)[C@H](O)[C@H](C)O1 [Dox, Doxorubicin]
  cytotoxicity (percentage of cell survival), positive control: cytotoxic even at 5 µM
